Data from patent US12297190B2, “Modulators of STING (stimulator of interferon genes)” (PFIZER INC., priority 2019, dated 2025).

These molecules were tested against R232-STING (Homo sapiens, UniProt Q86WV6, H232R) (assay: biochemical).
Chain of R232-STING (Q86WV6 155-341 H232R): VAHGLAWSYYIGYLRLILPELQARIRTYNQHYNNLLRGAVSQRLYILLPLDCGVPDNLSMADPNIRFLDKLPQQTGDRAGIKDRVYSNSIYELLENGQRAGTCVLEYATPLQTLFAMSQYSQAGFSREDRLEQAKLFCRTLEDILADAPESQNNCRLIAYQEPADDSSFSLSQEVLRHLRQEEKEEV

Ki [nM] | Compound
> 990 | CCn1nc(CO)cc1-c1n[nH]c(-c2nc(C(N)=O)cc3[nH]ncc23)n1 [ZZZ046, 4-{3-[1-ethyl-3-(hydroxymethyl)-1H-pyrazol-5-yl]-1H-1,2,4-triazol-5-yl}-1H-pyrazolo[4,3-c]pyridine-6-carboxamide]
> 990 | CCn1nc(CO)c(F)c1-c1nc(-c2nc(C(N)=O)cc3c2cnn3C)n(C)n1 [ZZZ052, 4-{3-[1-ethyl-4-fluoro-3-(hydroxymethyl)-1H-pyrazol-5-yl]-1-methyl-1H-1,2,4-triazol-5-yl}-1-methyl-1H-pyrazolo[4,3-c]pyridine-6-carboxamide]
900 | CCn1nc(C)cc1-c1n[nH]c(-c2cc(C(N)=O)cc3c2cnn3CCN2CCOCC2(C)C)n1 [ZZZ102, 1-[2-(3,3-dimethylmorpholin-4-yl)ethyl]-4-[3-(1-ethyl-3-methyl-1H-pyrazol-5-yl)-1H-1,2,4-triazol-5-yl]-1H-indazole-6-carboxamide]
661 | CCn1nc(C)cc1-c1n[nH]c(-c2cc(C(N)=O)cc3c2cnn3CCN2C[C@@H](C)OC[C@H]2C)n1 [ZZZ097, 1-{2-[(2R,5R)-2,5-dimethylmorpholin-4-yl]ethyl}-4-[3-(1-ethyl-3-methyl-1H-pyrazol-5-yl)-1H-1,2,4-triazol-5-yl]-1H-indazole-6-carboxamide]
> 990 | CCn1nc(C)cc1-c1nnc(-c2cc(C(N)=O)cc3c2cnn3CCCCN2CCCCC2)[nH]1 [ZZZ043, 4-[5-(1-ethyl-3-methyl-1H-pyrazol-5-yl)-4H-1,2,4-triazol-3-yl]-1-[4-(piperidin-1-yl)butyl]-1H-indazole-6-carboxamide]
> 900 | CCn1nc(C)cc1-c1nnc(-c2c(C(F)(F)F)c(C(N)=O)cc3c2cnn3C)[nH]1 [ZZZ044, 4-[5-(1-ethyl-3-methyl-1H-pyrazol-5-yl)-4H-1,2,4-triazol-3-yl]-1-methyl-5-(trifluoromethyl)-1H-indazole-6-carboxamide]
190 | CCn1nc(C)cc1-c1n[nH]c(-c2nc(C(N)=O)cc3[nH]ncc23)n1 [ZZZ012, 4-[3-(1-ethyl-3-methyl-1H-pyrazol-5-yl)-1H-1,2,4-triazol-5-yl]-1H-pyrazolo[4,3-c]pyridine-6-carboxamide]
536 | CCn1nc(C)cc1-c1nnc(-c2cc(C(N)=O)cc3c2cnn3C2CCNCC2)[nH]1 [ZZZ067, 4-[5-(1-ethyl-3-methyl-1H-pyrazol-5-yl)-4H-1,2,4-triazol-3-yl]-1-(piperidin-4-yl)-1H-indazole-6-carboxamide]
> 990 | CCN1CCCC[C@@H]1Cn1ncc2c(-c3nnc(-c4cc(C)nn4CC)[nH]3)cc(C(N)=O)cc21 (racemic) [ZZZ014, 4-[5-(1-ethyl-3-methyl-1H-pyrazol-5-yl)-4H-1,2,4-triazol-3-yl]-1-{[(2R)-1-ethylpiperidin-2-yl]methyl}-1H-indazole-6-carboxamide]
> 990 | CCn1nc(C)cc1-c1nnc(-c2cc(C(N)=O)cc3c2cnn3C[C@H]2CCCN2C)[nH]1 [ZZZ027, 4-[5-(1-ethyl-3-methyl-1H-pyrazol-5-yl)-4H-1,2,4-triazol-3-yl]-1-{[(2R)-1-methylpyrrolidin-2-yl]methyl}-1H-indazole-6-carboxamide]
835 | CCn1nc(C)cc1-c1nnc(-c2cc(C(N)=O)cc3c2cnn3C[C@H]2CC23CCNCC3)[nH]1 (racemic) [ZZZ072, 1-{[(1S)-6-azaspiro[2.5]octan-1-yl]methyl}-4-[5-(1-ethyl-3-methyl-1H-pyrazolo-5-yl)-4H-1,2,4-triazol-3-yl]-1H-indazole-6-carboxamide]
> 990 | CCn1nc(C)c(F)c1-c1nc(-c2nc(C(N)=O)cc3c2cnn3CCN2C[C@@H](C)O[C@@H](C)C2)n(C)n1 [ZZZ087, 1-{2-[(2R,6S)-2,6-dimethylmorpholin-4-yl]ethyl}-4-[3-(1-ethyl-4-fluoro-3-methyl-1H-pyrazol-5-yl)-1-methyl-1H-1,2,4-triazol-5-yl]-1H-pyrazolo[4,3-c]pyridine-6-carboxamide]
572 | CCn1nc(C)cc1-c1nnc(-c2cc(C(N)=O)cc3c2cnn3CC2CC3(CCN(C)CC3)C2)[nH]1 [ZZZ033, 4-[5-(1-ethyl-3-methyl-1H-pyrazol-5-yl)-4H-1,2,4-triazol-3-yl]-1-[(7-methyl-7-azaspiro[3.5]nonan-2-yl)methyl]-1H-indazole-6-carboxamide]
917 | CCn1nc(C)cc1-c1n[nH]c(-c2cc(C(N)=O)cc3c2cnn3CCN2C[C@H](C)OC[C@H]2C)n1 (racemic) [ZZZ089, 1-{2-[(2S,5R)-2,5-dimethylmorpholin-4-yl]ethyl}-4-[3-(1-ethyl-3-methyl-1H-pyrazol-5-yl)-1H-1,2,4-triazol-5-yl]-1H-indazole-6-carboxamide]
> 990 | CCn1nc(C)cc1-c1nnc(-c2cc(C(N)=O)cc3c2cnn3[C@@H](C)CN(C)C)[nH]1 [ZZZ020, 1-[(2S)-1-(dimethylamino)propan-2-yl]-4-[5-(1-ethyl-3-methyl-1H-pyrazol-5-yl)-4H-1,2,4-triazol-3-yl]-1H-indazole-6-carboxamide]
> 990 | CCn1nc(C)cc1-c1nnc(-c2cc(C(N)=O)cc3c2cnn3CCN2CC(C)C2)[nH]1 [ZZZ036, 4-[5-(1-ethyl-3-methyl-1H-pyrazol-5-yl)-4H-1,2,4-triazol-3-yl]-1-[2-(3-methylazetidin-1-yl)ethyl]-1H-indazole-6-carboxamide]

The next lines start with the molecule.

Compound | Ki [nM]
CCn1ccc2c(-c3nc(-c4cc(C)nn4CCC(=O)O)n[nH]3)nc(C(N)=O)cc21 [ZZZ062, 3-{5-[5-(6-carbamoyl-1-ethyl-1H-pyrrolo[3,2-c]pyridin-4-yl)-1H-1,2,4-triazol-3-yl]-3-methyl-1H-pyrazol-1-yl}propanoic acid] | 543
CCn1nc(C)cc1-c1nnc(-c2cc(C(N)=O)cc3c2cnn3[C@H](C)CCCN(C)C)[nH]1 (racemic) [ZZZ031, 1-[(2R)-5-(dimethylamino)pentan-2-yl]-4-[5-(1-ethyl-3-methyl-1H-pyrazol-5-yl)-4H-1,2,4-triazol-3-yl]-1H-indazole-6-carboxamide] | > 990
CCc1nc(C)[nH]c1-c1n[nH]c(-c2cc(C(N)=O)cc3c2cnn3C)n1 [ZZZ055, 4-[3-(4-ethyl-2-methyl-1H-imidazol-5-yl)-1H-1,2,4-triazol-5-yl]-1-methyl-1H-indazole-6-carboxamide] | > 990
CCn1nc(C)cc1-c1nnc(-c2cc(C(N)=O)cc3c2cnn3C[C@@H]2CNCCO2)[nH]1 [ZZZ064, 4-[5-(1-ethyl-3-methyl-1H-pyrazol-5-yl)-4H-1,2,4-triazol-3-yl]-1-{[(2S)-morpholin-2-yl]methyl}-1H-indazole-6-carboxamide] | > 990
CCn1nc(C)cc1-c1nnc(-c2c(C(F)F)c(C(N)=O)cc3c2cnn3C)[nH]1 [ZZZ011, 5-(difluoromethyl)-4-[5-(1-ethyl-3-methyl-1H-pyrazol-5-yl)-4H-1,2,4-triazol-3-yl]-1-methyl-1H-indazole-6-carboxamide] | > 270
CCn1nc(CO)cc1-c1cnc(-c2cc(C(N)=O)cc3c2cnn3C)[nH]1 [ZZZ122, 4-{5-[1-ethyl-3-(hydroxymethyl)-1H-pyrazol-5-yl]-1H-imidazol-2-yl}-1-methyl-1H-indazole-6-carboxamide] | > 900
CCn1nc(C(=O)O)cc1-c1n[nH]c(-c2nc(C(N)=O)cc3c2cnn3C)n1 [ZZZ004, 5-[5-(6-carbamoyl-1-methyl-1H-pyrazolo[4,3-c]pyridin-4-yl)-1H-1,2,4-triazol-3-yl]-1-ethyl-1H-pyrazole-3-carboxylic acid] | > 90
CCn1nc(C)cc1-c1nnc(-c2cc(C(N)=O)cc3c2cnn3C(C)CN2CCCCC2)[nH]1 (centres unmarked) [ZZZ026, 4-[5-(1-ethyl-3-methyl-1H-pyrazol-5-yl)-4H-1,2,4-triazol-3-yl]-1-[1-(piperidin-1-yl)propan-2-yl]-1H-indazole-6-carboxamide] | > 990
CCn1nc(C)cc1-c1nnc(-c2cc(C(N)=O)cc3c2cnn3C(C)CN2CCCC2)[nH]1 (centres unmarked) [ZZZ040, 4-[5-(1-ethyl-3-methyl-1H-pyrazol-5-yl)-4H-1,2,4-triazol-3-yl]-1-[1-(pyrrolidin-1-yl)propan-2-yl]-1H-indazole-6-carboxamide] | > 990
CCn1nc(C)c(O)c1-c1cnc(-c2cc(C(N)=O)cc3c2cnn3C)[nH]1 [ZZZ123, 4-[5-(1-ethyl-4-hydroxy-3-methyl-1H-pyrazol-5-yl)-1H-imidazol-2-yl]-1-methyl-1H-indazole-6-carboxamide] | 63.3
CCn1nc(C)cc1-c1n[nH]c(-c2cc(C(N)=O)cc3c2cnn3CCN2CC[C@H](O)C2)n1 (racemic) [ZZZ119, 4-[3-(1-ethyl-3-methyl-1H-pyrazol-5-yl)-1H-1,2,4-triazol-5-yl]-1-{2-[(3S)-3-hydroxypyrrolidin-1-yl]ethyl}-1H-indazole-6-carboxamide] | > 990
CCn1nc(C)c(F)c1-c1nnc(-c2cc(C(N)=O)cn3c(CN)ncc23)[nH]1 [ZZZ086, 3-(aminomethyl)-8-[5-(1-ethyl-4-fluoro-3-methyl-1H-pyrazol-5-yl)-4H-1,2,4-triazol-3-yl]imidazo[1,5-c]pyridine-6-carboxamide] | > 990
CCn1nc(C)cc1-c1nc(-c2nc(C(N)=O)cc3c2cnn3C)n(CCNC)n1 [ZZZ126, 4-{3-(1-ethyl-3-methyl-1H-pyrazol-5-yl)-1-[2-(methylamino)ethyl]-1H-1,2,4-triazol-5-yl}-1-methyl-1H-pyrazolo[4,3-c]pyridine-6-carboxamide] | > 990
CCn1nc(C)cc1-c1n[nH]c(-c2cc(C(N)=O)cc3c2cnn3CCN(C)C2CCC2)n1 [ZZZ108, 1-{2-[cyclobutyl(methyl)amino]ethyl}-4-[3-(1-ethyl-3-methyl-1H-pyrazol-5-yl)-1H-1,2,4-triazol-5-yl]-1H-indazole-6-carboxamide] | 850
CCn1nc(C)cc1-c1nnc(-c2cc(C(N)=O)cc3c2cnn3C[C@H]2CCCCN2C)[nH]1 [ZZZ032, 4-[5-(1-ethyl-3-methyl-1H-pyrazol-5-yl)-4H-1,2,4-triazol-3-yl]-1-{[(2R)-1-methylpiperidin-2-yl]methyl}-1H-indazole-6-carboxamide] | 967
CCn1nc(C)cc1-c1nnc(-c2cc(C(N)=O)cc3c2cnn3C[C@@H]2CCC3(CNC3)O2)[nH]1 (racemic) [ZZZ063, 4-[5-(1-ethyl-3-methyl-1H-pyrazol-5-yl)-4H-1,2,4-triazol-3-yl]-1-{[(6S)-5-oxa-2-azaspiro[3.4]octan-6-yl]methyl}-1H-indazole-6-carboxamide] | > 990
